# Results from article PMC10744248, “Unsymmetrical Pd(II) Pincer Complexes with Benzothiazole and Thiocarbamate Flanking Units: Expedient Solvent-Free Synthesis and Anticancer Potential” (International Journal of Molecular Sciences, 2023).
# Assays:
# [1] = tested on: human cell lines; assay: MTT cytotoxicity assay, cell line panel (line not specified); assay type: cell-based; conditions: at a concentration as high as 60 μM
# Method: (§1) To estimate the anticancer potential of palladacycles 2a,b, their ability to inhibit cell growth in different solid and blood cancer cell lines was determined using the conventional MTT assay. […] This underscores the importance of a more labile pincer-type coordination that can be achieved not only by the introduction of two different donor centers (like hard nitrogen and soft sulfur atoms) but also via elongating one of the side arms (like in the considered thiophosphoryloxy and thiocarbamate derivatives). In turn, the stability of a pincer-type framework of complex 2b, used as a representative example, in neat DMSO, DMSO–water, and DMSO–PBS mixtures for 2 days was confirmed by the results of UV-vis spectroscopic studies (for the corresponding spectra, see Figures S33–S35 in the SI).
# However, in certain cases, the selectivity indices approached and even exceeded 10.0. Of particular note is the same level of cytotoxicity of both benzothiazole–thiocarbamate complexes against parental cell lines and doxorubicin-resistant clones of non-cancerous mammary epithelial cells (HBL100 and HBL100/Dox) and, more importantly, chronic myelogenous leukemia cells K562 and K562/iS9. […]
# [2] = tested on: doxorubicin-resistant chronic myelogenous leukemia K562/iS9 cells; assay: MTT cytotoxicity assay, K562/iS9; assay type: cell-based, human
# Method: as §1
# (§2) However, in certain cases, the selectivity indices approached and even exceeded 10.0. Of particular note is the same level of cytotoxicity of both benzothiazole–thiocarbamate complexes against parental cell lines and doxorubicin-resistant clones of non-cancerous mammary epithelial cells (HBL100 and HBL100/Dox) and, more importantly, chronic myelogenous leukemia cells K562 and K562/iS9. The additional investigations by flow cytometry performed on K562 and K562/iS9 cancer cells treated with complex 2a using the Annexin V-FITC/PI double staining assay confirmed its ability to […] (Figure 4), increasing the populations of early (lower right quadrants) and late (upper right quadrants) apoptotic cells in both parental and resistant lines. These findings argue for the possibility of creating new promising anticancer agents based on the related cyclopalladated derivatives that could potentially evade drug resistance of cancer cells.
# (§3) The cytotoxicities of ligand 1b and Pd(II) pincer complexes 2a,b, V, and VI (X = O) were studied on human colorectal carcinoma (HCT116), breast cancer (MCF7), prostate adenocarcinoma (PC3), chronic myelogenous leukemia (K562 and K562/iS9), multiple plasmacytoma (AMO1), and acute lymphoblastic leukemia (H9) cell lines, as well as human embryonic kidney (HEK293) and mammary epithelial (HBL100 and HBL100/Dox) cells used as representatives of non-cancerous cell lines. All the cell lines were obtained from American Type Culture Collection (ATCC). The tested compounds were initially dissolved in DMSO. Cisplatin (in the initial form of an infusion concentrate in natural saline solution) from a commercial source was used as a positive control. The detailed procedure is described in Ref. [52].
# [3] = tested on: doxorubicin-resistant mammary epithelial HBL100/Dox cells; assay: MTT cytotoxicity assay, HBL100/Dox; assay type: cell-based, human; conditions: HBL100/dox (non-cancerous, doxorubicin-resistant)
# Method: as §1, §2, §3
# [4] = tested on: breast cancer (MCF7) cells; assay: MTT cytotoxicity assay, MCF7; assay type: cell-based, human; conditions: for IC50: MCF7, MTT assay
# Method: (§4) To estimate the anticancer potential of palladacycles 2a,b, their ability to inhibit cell growth in different solid and blood cancer cell lines was determined using the conventional MTT assay.
# as §3, with “Cisplatin (in the initial form of an infusion concentrate in natural saline solution) from a commercial source was used as a positive control.” left out
# [5] = tested on: acute lymphoblastic leukemia (H9) cells; assay: MTT cytotoxicity assay, H9; assay type: cell-based, human
# Method: as §4
# as §3, with “Cisplatin (in the initial form of an infusion concentrate in natural saline solution) from a commercial source was used as a positive control.” left out
# [6] = tested on: multiple plasmacytoma (AMO1) cells; assay: MTT cytotoxicity assay, AMO1; assay type: cell-based, human
# Method: as §4
# as §3, with “Cisplatin (in the initial form of an infusion concentrate in natural saline solution) from a commercial source was used as a positive control.” left out
# [7] = tested on: prostate adenocarcinoma (PC3) cells; assay: MTT cytotoxicity assay, PC3; assay type: cell-based, human; conditions: for IC50: PC3, MTT assay
# Method: as §4
# as §3, with “Cisplatin (in the initial form of an infusion concentrate in natural saline solution) from a commercial source was used as a positive control.” left out
# [8] = tested on: mammary epithelial HBL100 cells; assay: MTT cytotoxicity assay, HBL100; assay type: cell-based, human; conditions: HBL100 (non-cancerous)
# Method: as §4
# as §3, with “Cisplatin (in the initial form of an infusion concentrate in natural saline solution) from a commercial source was used as a positive control.” left out
# [9] = tested on: human embryonic kidney (HEK293) cells; assay: MTT cytotoxicity assay, HEK293; assay type: cell-based; conditions: HEK293 (non-cancerous)
# Method: as §4
# as §3, with “Cisplatin (in the initial form of an infusion concentrate in natural saline solution) from a commercial source was used as a positive control.” left out
# [10] = tested on: chronic myelogenous leukemia K562 cells; assay: MTT cytotoxicity assay, K562; assay type: cell-based, human
# Method: as §4
# as §3, with “Cisplatin (in the initial form of an infusion concentrate in natural saline solution) from a commercial source was used as a positive control.” left out
# [11] = tested on: human colorectal carcinoma (HCT116) cells; assay: MTT cytotoxicity assay, HCT116; assay type: cell-based; conditions: for IC50: HCT116, MTT assay
# Method: as §4
# as §3, with “Cisplatin (in the initial form of an infusion concentrate in natural saline solution) from a commercial source was used as a positive control.” left out
# [12] = Stability by UV-vis spectroscopy; assay type: physicochemical
# Method: as §1
# The UV–vis spectra were registered on a Cary50 spectrometer in quartz cells with 10 mm path length (Figures S33–S35 in the SI).
# Figure S33. […]
# DMSO–PBS (1:1) registered immediately after dissolution (a) , in one ( b) or two (c) days Note: a reduction in the absorbance in the case of the DMSO–PBS (1:1) solution in time is connected […]
# To confirm its identity, the resulting precipitate was collected by filtration, dried in air, dissolved in neat DMSO, and immediately analyzed by UV-Vis spectroscopy (see Fig. S35). […]
smiles,measurement,setting,value
"CCN(CC)C(=S)Oc1cccc(-c2nc3ccccc3s2)c1 [1b, O-[3-(Benzo[d]thiazol-2-yl)phenyl] Diethylthiocarbamate]",cytotoxicity,[1],nontoxic
"N.N.[Cl][Pt][Cl] [Cisplatin, reference compound]",IC50,[2],16 ± 2 µM
same,IC50,[3],23.6 ± 3.6 µM
CN(C)C1=[S+][Pd-2]2([Cl])[c]3c(cccc3-c3sc4ccccc4[n+]32)O1 (centres unmarked) [2a],IC50,[2],0.9 ± 0.1 µM
same,IC50,[4],3.3 ± 0.4 µM
same,IC50,[5],1.3 ± 0.1 µM
same,IC50,[6],0.3 ± 0.1 µM
same,IC50,[7],1.1 ± 0.3 µM
same,IC50,[8],3.2 ± 0.5 µM
same,IC50,[3],4.4 ± 0.8 µM
same,IC50,[9],2.5 ± 0.2 µM
same,IC50,[10],0.9 ± 0.2 µM
same,IC50,[11],1.3 ± 0.2 µM
"[Cl][Pd-2]12[S+]=P(c3ccccc3)(c3ccccc3)c3cccc([c]31)-c1sc3ccccc3[n+]12 (centres unmarked) [V, reference compound]",percentage of living cells,"[4]; MCF7, at a concentration of 80 μM",over 60%
same,percentage of living cells,"[7]; PC3, at a concentration of 80 μM",over 60%
same,percentage of living cells,"[11]; HCT116, at a concentration of 80 μM",over 60%
"[Cl][Pd-2]12[S+]=P(c3ccccc3)(c3ccccc3)Oc3cccc([c]31)-c1sc3ccccc3[n+]12 (centres unmarked) [VI (X = O), reference compound]",IC50,[2],2.5 ± 0.4 µM
same,IC50,[4],17 ± 0.5 µM
same,IC50,[5],1.7 ± 0.3 µM
same,IC50,[6],3.4 ± 0.5 µM
same,IC50,[7],6.6 ± 0.6 µM
same,IC50,[8],9.4 ± 0.9 µM
same,IC50,[3],28.6 ± 3.8 µM
same,IC50,[9],13 ± 0.5 µM
same,IC50,[10],1.9 ± 0.3 µM
same,IC50,[11],10.3 ± 0.8 µM
CCN(CC)C1=[S+][Pd-2]2([Cl])[c]3c(cccc3-c3sc4ccccc4[n+]32)O1 (centres unmarked) [2b],IC50,[2],2.6 ± 0.8 µM
same,IC50,[4],13.5 ± 2.1 µM
same,IC50,[5],2.1 ± 0.9 µM
same,IC50,[6],4.4 ± 0.8 µM
same,IC50,[7],8.5 ± 2.5 µM
same,IC50,[8],10.2 ± 3.3 µM
same,behaviour in DMSO–PBS (1:1) solution in time (reduction in absorbance),"[12]; DMSO–PBS (1:1), up to 2 days",gradual precipitation
same,stability of the pincer-type framework,"[12]; neat DMSO, DMSO–water and DMSO–PBS mixtures (1:1), 2 days",confirmed
same,IC50,[3],16.3 ± 3.8 µM
same,IC50,[9],9.5 ± 0.7 µM
same,IC50,[10],2.9 ± 0.4 µM
same,IC50,[11],12.7 ± 1.5 µM
